Tests used:
[1] = tested on: interferon-gamma (IFNgamma); design: species or system mice; conditions: mouse, in vivo
[2] = tested on: systemic tumor necrosis factor (TNF); experiment: Systemic TNF induction in vivo after subcutaneous injection (Example 4); conditions: mice
Experimental: The resiquimod preparation was made as an aqueous suspension in PBS.
At one hour and at three hours post dose, the mice were bled and systemic TNF was measured in the serum (pg/mL) by ELISA assay. The results are presented as the geometric means obtained for each group of five animals. […] This can be important in providing localized immune system enhancement without systemic TNF side effects.

[3] = tested on: TNF protein; experiment: Local in vivo activity: serum TNF protein by ELISA (Example 11); design: species or system Balb/c male mice; conditions: s.c. 1.0 mg/kg, mean (s.d.) of 4 mice, not detected = less than 10 pg/ml
Experimental: (§1) The final dose for either compound was 1.0 mg/kg. At each time point, the mice were bled, sacrificed, and the draining axial and brachial lymph nodes were removed and placed in RNA preservation fluid (RNA later reagent obtained from Ambion Corporation, Austin, Tex.). Serum samples were analyzed for TNF protein concentration (pg/ml) by ELISA as a measure of systemic presence of this cytokine. The draining lymph nodes were processed for measurement of TNF mRNA gene expression by quantitative PCR (7900HT Thermocycler obtained from Applied Biosystems, Carlsbad, Calif.). The data reported (Table 10) is the mean+/−standard deviation (s.d.) for each group. The “not detected” level for serum TNF concentration was less than 10 pg/ml.

[4] = tested on: TNF mRNA; experiment: Local in vivo activity: TNF mRNA gene expression in draining lymph nodes by quantitative PCR (Example 11); design: species or system Balb/c male mice; conditions: s.c. 1.0 mg/kg; for TNF mRNA Gene Expression in Lymph Nodes [fold increase versus control (s.d.)]: draining axial and brachial lymph nodes
Experimental: as §1

[5] = tested on: human peripheral mononuclear cells (PBMC); experiment: TNF production in human PBMC (Example 7); type: cell-based; conditions: for TNF: human PBMC, overnight at 37° C., ELISA
Experimental: The human peripheral blood mononuclear cells were prepared from human volunteers and placed in culture in 96 well microtiter plates. […] The cells were then incubated overnight at 37° C. The medium was removed and TNF concentration (ng/mL) was measured by ELISA assay (Table 6).

SMILES: CCOCc1nc2c(N)nc3ccccc3c2n1CC(C)(C)O [Resiquimod, resiquimod, reference compound]
- In Vitro Challenge of Isolated Spleenocytes, IFNgamma, Control PBS Challenge [1]: 3.84 pg/mL
- In Vitro Challenge of Isolated Spleenocytes, IFNgamma, HA Antigen Challenge [1]: 91.88 pg/mL
- TNF concentration at Times Following Treatment, 1 hour ([2]; s.c. 1 mg/Kg, serum at 1 hour post dose, geometric mean of 5 animals): 1140.41 pg/mL
- TNF concentration at Times Following Treatment, 3 hour ([2]; s.c. 1 mg/Kg, serum at 3 hours post dose, geometric mean of 5 animals): <5 pg/mL
- Serum TNF [pg/ml (s.d.)] ([3]; 1 hour post dose): 4082 (873) pg/ml
- Serum TNF [pg/ml (s.d.)] ([3]; 3 hours post dose): 107 (35) pg/ml
- Serum TNF [pg/ml (s.d.)] ([3]; 6 hours post dose): 18 (4) pg/ml
- TNF mRNA Gene Expression in Lymph Nodes [fold increase versus control (s.d.)] ([4]; 1 hour post dose): 14.19 (3.83) fold increase versus control
- TNF mRNA Gene Expression in Lymph Nodes [fold increase versus control (s.d.)] ([4]; 3 hours post dose): 4.82 (0.70) fold increase versus control
- TNF mRNA Gene Expression in Lymph Nodes [fold increase versus control (s.d.)] ([4]; 6 hours post dose): 1.39 (0.27) fold increase versus control
- TNF mRNA Gene Expression in Lymph Nodes [fold increase versus control (s.d.)] ([4]; 18 hours post dose): 0.90 (0.23) fold increase versus control

SMILES: CCCCCCCCCCCCCCCCCC(=O)NCCCCOn1c(CCCC)nc2c(N)nc3ccccc3c21 [N-(4-{[4-amino-2-butyl-1H-imidazo[4,5-c]quinolin-1-yl]oxy}butyl)octadecanamide]
- In Vitro Challenge of Isolated Spleenocytes, IFNgamma, Control PBS Challenge [1]: 4.82 pg/mL
- In Vitro Challenge of Isolated Spleenocytes, IFNgamma, HA Antigen Challenge [1]: 293.51 pg/mL
- systemic TNF response (in words) ([2]; subcutaneous injection, 1 mg/Kg, summary of Table 3): does not induce a systemic TNF response
- TNF ([5]; 0.014 μM): 0.13 ng/mL
- TNF ([5]; 0.043 μM): 0.17 ng/mL
- TNF ([5]; 0.13 μM): 0.35 ng/mL
- TNF ([5]; 0.37 μM): 2.51 ng/mL
- TNF ([5]; 1.1 μM): 7.07 ng/mL
- TNF ([5]; 3.3 μM): 28.73 ng/mL
- TNF ([5]; 10 μM): 31.46 ng/mL
- TNF ([5]; 30 μM): 29.47 ng/mL
- induction of TNF-α production (in words) ([5]; summary statement, "as described above"): induce the production of TNF-α
- Serum TNF [pg/ml (s.d.)] ([3]; 1 hour post dose): not detected
- Serum TNF [pg/ml (s.d.)] ([3]; 3 hours post dose): not detected
- Serum TNF [pg/ml (s.d.)] ([3]; 6 hours post dose): not detected
- Serum TNF [pg/ml (s.d.)] ([3]; 18 hours post dose): not detected
- cytokine induction effects, local versus systemic (in words) ([4]; TNF mRNA induced in draining lymph nodes without TNF protein in serum): primarily local
- TNF mRNA Gene Expression in Lymph Nodes [fold increase versus control (s.d.)] ([4]; 1 hour post dose): 0.65 (0.04) fold increase versus control
- TNF mRNA Gene Expression in Lymph Nodes [fold increase versus control (s.d.)] ([4]; 3 hours post dose): 1.62 (1.23) fold increase versus control
- TNF mRNA Gene Expression in Lymph Nodes [fold increase versus control (s.d.)] ([4]; 6 hours post dose): 7.23 (2.07) fold increase versus control
- TNF mRNA Gene Expression in Lymph Nodes [fold increase versus control (s.d.)] ([4]; 18 hours post dose): 1.55 (0.28) fold increase versus control

— US10383938B2 (priority 2010, dated 2019)
